Paper PMC12195648 (Pharmaceuticals, 2025)

tested on: KCL22 cells; experiment: Cytotoxicity, resazurin assay, KCL22; type: cell-based, human; conditions: Homo sapiens, KCL-22; 72 h, resazurin, GI50 ± SD
Description: (§1) The development of the KCL22 subclone B8 (T315I, 100%) has been previously detailed. All cell lines were maintained in a humidified incubator at 37 °C and 5% CO2, following the manufacturer’s instructions, in the appropriate medium supplemented with 10% foetal bovine serum, penicillin (100 IU/mL), streptomycin (100 µg/mL), and glutamine (4 mM).
(§2) Cytotoxicity was assessed utilizing resazurin, an indicator dyes that measures oxidation-reduction reactions in the mitochondria of living cells. Cells were seeded into 96-well plates and treated with the compounds for 72 h (six different doses of each compound, in triplicate).

Row | SMILES | GI50
1 | Cc1ccc(NC(=O)c2ccc(CN3CCN(C)CC3)cc2)cc1Nc1nccc(-c2cccnc2)n1 [imatinib, reference compound] | 9260 ± 1000 nM

tested on: K562 cells; experiment: Cytotoxicity, resazurin assay, K562; type: cell-based, human; conditions: Homo sapiens, K562; 72 h, resazurin, GI50 ± SD
Description: as §1, §2

Row | SMILES | GI50
2 | Cc1ccc(NC(=O)c2ccc(CN3CCN(C)CC3)cc2)cc1Nc1nccc(-c2cccnc2)n1 [imatinib, reference compound] | 230 ± 10 nM

tested on: HEK-293T cells; experiment: Cytotoxicity, resazurin assay, non-neoplastic HEK-293T; type: cell-based; conditions: Homo sapiens, 72 h, GI50 ± SD
Description: as §1, with “The human cell line KCL22 was sourced from the German Collection of Microorganisms and Cell Cultures, while K562 and HEK-293T cells were obtained from the European Collection of Authenticated Cell Cultures. The” for “The”
Cytotoxicity was assessed utilizing resazurin, an indicator dyes that measures oxidation-reduction reactions in the mitochondria of living cells. Cells were seeded into 96-well plates and treated with the compounds for 72 h (six different doses of each compound, in triplicate). After treatment, a solution of resazurin (Merck, Prague, Czech Republic) was added for 4 h, and the fluorescence of resorufin corresponding to viable cell quantity was measured at 544 nm/590 nm (excitation/emission) using a Fluoroskan Ascent microplate reader (LabSystems, Helsinki, Finland).

Row | SMILES | GI50
3 | Cc1ccc(NC(=O)c2ccc(CN3CCN(C)CC3)cc2)cc1Nc1nccc(-c2cccnc2)n1 [imatinib, reference compound] | > 10000 nM

tested on: Bcr-Abl; experiment: not given; conditions: 58-purine 3D-QSAR database, Table S3; cited from earlier work

Row | SMILES | pIC50 Exp
4 | CCCCCCn1cnc2c(Nc3ccc(F)c(F)c3)nc(Nc3ccc(N4CCN(CCO)CC4)cc3)nc21 [Compound 58] | 5.775
5 | COC(=O)c1ccc(Nc2nc(Nc3ccc(N4CCN(C)CC4)cc3)nc3c2ncn3CC2CC2)cc1 [Compound 24] | 7.398
6 | CN1CCN(c2ccc(Nc3nc(Nc4cccc([N+](=O)[O-])c4)c4ncn(CC5CC5)c4n3)cc2)CC1 [Compound 20] | 6.770
7 | CN1CCN(c2ccc(Nc3nc(Nc4cccc(OC(F)(F)F)c4)c4ncn(CC5CC5)c4n3)cc2)CC1 [Compound 19] | 5.939
8 | COc1ccc(Nc2nc(Nc3ccc(N4CCN(C)CC4)c(F)c3)nc3c2ncn3CC2CC2)cc1 [Compound 11] | 6.469
9 | CCCCCCn1cnc2c(Nc3cccc(F)c3)nc(Nc3ccc(N4CCN(CCO)CC4)cc3)nc21 [Compound 57] | 6.174
10 | COc1cc(Nc2nc(Nc3ccc(N4CCN(C)CC4)cc3)nc3c2ncn3CC2CC2)c(OC)cc1Cl [Compound 5] | 4.444
11 | CN1CCN(c2ccc(Nc3nc(Nc4ccccc4F)c4ncn(CC5CC5)c4n3)cc2)CC1 [Compound 14] | 5.378
12 | OCCN1CCN(c2ccc(Nc3nc(Nc4cccc(F)c4)c4ncn(CC5CC5)c4n3)cc2)CC1 [VII] | 7.833
13 | CN1CCN(C(=O)c2ccc(Nc3nc(Nc4ccccc4)c4ncn(CC5CC5)c4n3)cc2)CC1 [Compound 29] | 5.917
14 | CCCCCCn1cnc2c(Nc3ccccc3)nc(Nc3ccc(N4CCN(C)CC4)cc3)nc21 [Compound 38] | 5.008
15 | CN1CCN(c2ccc(Nc3nc(N)c4ncn(CC5CC5)c4n3)cc2)CC1 [Compound 46] | 5.403
16 | CCCCCCCCn1cnc2c(Nc3ccc(F)c(F)c3)nc(Nc3ccc(N4CCN(C)CC4)cc3)nc21 [Compound 32] | 4.063
17 | CCCCCn1cnc2c(Nc3ccccc3)nc(Nc3ccc(N4CCN(C)CC4)cc3)nc21 [Compound 35] | 5.910
18 | COc1cc(Cl)ccc1Nc1nc(Nc2ccc(N3CCN(C)CC3)cc2)nc2c1ncn2CC1CC1 [Compound 6] | 6.097
19 | CN1CCN(c2ccc(Nc3nc(Nc4ccccc4)c4ncn(CC5CC5)c4n3)cc2F)CC1 [Compound 7] | 6.237
20 | CN1CCN(c2ccc(Nc3nc(Nc4cccc(C#N)c4)c4ncn(CC5CC5)c4n3)cc2)CC1 [Compound 15] | 7.155
21 | CC(C)CCn1cnc2c(Nc3ccccc3)nc(Nc3ccc(N4CCN(C)CC4)cc3)nc21 [Compound 36] | 5.750
22 | CCCCCCn1cnc2c(Nc3ccccc3)nc(Nc3ccc(N4CCN(CCO)CC4)cc3)nc21 [Compound 56] | 6.081
23 | CN1CCN(Cc2ccc(Nc3nc(Nc4cccc(F)c4)c4ncn(CC5CC5)c4n3)cc2)CC1 [Compound 45] | 6.744
24 | CCCCCn1cnc2c(Nc3cccc(F)c3)nc(Nc3ccc(N4CCN(C)CC4)cc3)nc21 [Compound 42] | 6.187
25 | CN1CCN(c2ccc(Nc3nc(Nc4ccc(OC(F)(F)F)cc4)c4ncn(CC5CC5)c4n3)cc2)CC1 [Compound 21] | 6.409
26 | CN1CCN(Cc2ccc(Nc3nc(Nc4ccc(F)c(F)c4)c4ncn(CC5CC5)c4n3)cc2)CC1 [Compound 48] | 6.649
27 | CN1CCN(c2ccc(Nc3nc(Nc4cccc(F)c4)c4ncn(CC5CC5)c4n3)cc2F)CC1 [Compound 9] | 6.222
28 | CN1CCN(c2ccc(Nc3nc(Nc4ccc(F)cc4)c4ncn(CC5CC5)c4n3)cc2F)CC1 [Compound 8] | 5.971
29 | CN1CCN(C(=O)c2ccc(Nc3nc(Nc4ccc(F)c(F)c4)c4ncn(CC5CC5)c4n3)cc2)CC1 [Compound 31] | 6.027

Row | SMILES | pIC50 Exp
30 | CN1CCN(c2ccc(Nc3nc(Nc4ccc(Cl)c(Cl)c4)c4ncn(CC5CC5)c4n3)cc2)CC1 [Compound 26] | 7.155
31 | CN1CCN(c2ccc(Nc3nc(Nc4ccc([N+](=O)[O-])cc4)c4ncn(CC5CC5)c4n3)cc2)CC1 [Compound 22] | 6.886
32 | CN1CCN(c2ccc(Nc3nc(Nc4cccc(Cl)c4)c4ncn(CC5CC5)c4n3)cc2)CC1 [Compound 17] | 6.921
33 | CC(C)CCn1cnc2c(Nc3ccc(F)c(F)c3)nc(Nc3ccc(N4CCN(C)CC4)cc3)nc21 [Compound 43] | 5.642
34 | CN1CCN(c2ccc(Nc3nc(Nc4ccc(F)c(F)c4)c4ncn(CC5CC5)c4n3)cc2)CC1 [Compound 4] | 7.398
35 | CN1CCN(c2ccc(Nc3nc(Nc4ccc(Cl)c(F)c4)c4ncn(CC5CC5)c4n3)cc2)CC1 [Compound 27] | 6.699
36 | CN1CCN(c2ccc(Nc3nc(Nc4ccc(F)c(F)c4)c4ncn(CC5CC5)c4n3)cc2F)CC1 [Compound 10] | 6.237
37 | CC(C)CCn1cnc2c(Nc3ccccc3)nc(Nc3ccc(N4CCN(CCO)CC4)cc3)nc21 [Compound 53] | 5.907
38 | CC(C)CCn1cnc2c(Nc3cccc(F)c3)nc(Nc3ccc(N4CCN(CCO)CC4)cc3)nc21 [Compound 54] | 6.886
39 | CN1CCN(c2ccc(Nc3nc(Nc4ccccc4)c4ccn(CC5CC5)c4n3)cc2)CC1 [Compound 44] | 4.206
40 | COc1cc(Cl)ccc1Nc1nc(Nc2ccc(N3CCN(C)CC3)c(F)c2)nc2c1ncn2CC1CC1 [Compound 13] | 5.074
41 | Cc1cccc(Nc2nc(Nc3ccc(N4CCN(C)CC4)cc3)nc3c2ncn3CC2CC2)c1 [Compound 16] | 7.000
42 | CN1CCN(c2ccc(Nc3nc(Nc4ccc(F)c(Cl)c4)c4ncn(CC5CC5)c4n3)cc2)CC1 [Compound 25] | 6.569
43 | CN1CCN(C(=O)c2ccc(Nc3nc(Nc4cccc(F)c4)c4ncn(CC5CC5)c4n3)cc2)CC1 [Compound 30] | 6.244
44 | CC(C)CCn1cnc2c(Nc3cccc(F)c3)nc(Nc3ccc(N4CCN(C)CC4)cc3)nc21 [Compound 34] | 4.301
45 | CN1CCN(c2ccc(Nc3nc(NC4CCCCC4)c4ncn(CC5CC5)c4n3)cc2)CC1 [Compound 47] | 4.956
46 | CCCCCn1cnc2c(Nc3ccc(F)c(F)c3)nc(Nc3ccc(N4CCN(C)CC4)cc3)nc21 [Compound 37] | 5.866
47 | CN1CCN(c2ccc(Nc3nc(Nc4ccc(OC(F)(F)F)c([N+](=O)[O-])c4)c4ncn(CC5CC5)c4n3)cc2)CC1 [Compound 28] | 6.357
48 | CN1CCN(c2ccc(Nc3nc(Nc4cccc(C(F)(F)F)c4)c4ncn(CC5CC5)c4n3)cc2)CC1 [Compound 18] | 5.75
49 | CN1CCN(c2ccc(Nc3nc(NCc4ccccc4)c4ncn(CC5CC5)c4n3)cc2)CC1 [Compound 49] | 6.076
50 | CC(C)CCn1cnc2c(Nc3ccc(F)c(F)c3)nc(Nc3ccc(N4CCN(CCO)CC4)cc3)nc21 [Compound 55] | 5.754
51 | CCCCCCn1cnc2c(Nc3ccc(F)c(F)c3)nc(Nc3ccc(N4CCN(C)CC4)cc3)nc21 [Compound 40] | 4.469
52 | OCCN1CCN(c2ccc(Nc3nc(Nc4ccc(F)c(F)c4)c4ncn(CC5CC5)c4n3)cc2)CC1 [Compound 52] | 7.703
53 | CN1CCN(c2ccc(Nc3nc(Nc4cccc(F)c4)c4ncn(CC5CC5)c4n3)cc2)CC1 [Compound 3] | 7.398
54 | CN1CCN(c2ccc(Nc3nc(Nc4ccc(C#N)cc4)c4ncn(CC5CC5)c4n3)cc2)CC1 [Compound 23] | 7.000

same assay, conditions: earlier purines of the group; cited from earlier work

Row | SMILES | IC50
55 | OCCN1CCN(c2ccc(Nc3nc(Nc4cccc(F)c4)c4ncn(CC5CC5)c4n3)cc2)CC1 [VII] | 15 nM
56 | CCCCCCCCn1cnc2c(Nc3ccc(F)c(F)c3)nc(Nc3ccc(N4CCN(C)CC4)cc3)nc21 [Compound 32] | 86500 nM
57 | CN1CCN(c2ccc(Nc3nc(Nc4cccc(C#N)c4)c4ncn(CC5CC5)c4n3)cc2)CC1 [X] | 70 nM
